Reference: patent publication US20250066452A1, “SYNTHETIC AMPHIPATHIC HELICAL PEPTIDES AND TREATMENT METHODS USING SYNTHETIC AMPHIPATHIC HELICAL PEPTIDES” (UNIVERSITY OF MARYLAND, BALTIMORE, priority 2022, published 2025)
No end group written: not given here.

How the values were obtained:
mice = assay: Observation of adverse effects on repetitive daily skin application; type: in vivo
[1] = tested on: Complete Freund's Adjuvant (CFA) animal model of chronic inflammatory pain; assay: Thermal hyperalgesia test (incremental hot plate) in CFA model of chronic inflammatory pain; type: in vivo, mice; settings: for heat hyperalgesia compared to the inactive L3D-L37pA peptide: Example 3, FIGS. 5(a)-5(e), topical application once a day; for withdrawal latencies to thermal stimuli: CFA in left paw
Procedure: The L37pA peptide having the sequence […] (SEQ ID NO: 2) was synthesized by a solid-phase procedure. […] The L37pA and L3D-37pA peptides were formulated into both an intramuscular injectable preparation and a hydrogel or lotion preparation. The intramuscular (IM) injectable formulation contains 0.5 μg/μl of the peptide, with an injection dose of 2 μl/g mouse weight, which equals approximately 20 μg peptide per injection. The hydrogel and lotion formulations each contains 0.2 mg/ml of the peptide. 20-50 μl of the formulations are applied, which is approximately 4-10 μg peptide per single skin treatment. Topical hydrogel and lotion formulations containing a vehicle without any peptide were prepared as additional negative controls.
In this experiment, the peptide was administered via intramuscular injections. The first group of mice (“CFA group”) were injected with 30 μl of Complete Freund's Adjuvant (CFA) in the plantar surface of the left hind paw. The second group of mice (“Vehicle Group”) were injected with Vehicle (saline) instead of CFA. For each of the CFA and Vehicle Groups, the mice were then injected once a day with the following formulations, with “n” representing the number of mice receiving each formulation: […]
Thermal hyperalgesia was performed before the CFA injection. The measurement of baseline thermosensitivity was actually carried out before time 0, but it was assumed that the baseline remained the same at time 0. Injection of CFA in the paw and the intramuscular injection of peptide were performed at the same time. Injections of CFA and peptides were performed in left paws. The right paws of the mice remained intact and were used for comparison.
After administering the L37pA or L3D-37pA peptide, the thermal hyperalgesia test was performed for 30 minutes at 3, 24, and 72 hours post CFA-injection. In the thermal hyperalgesia test, an incremental hot plate with an automatic cut-off temperature of 50° C. was used to induce the nocifensive behaviors of licking a hind paw to identify the thresholds for noxious heat and assess the thermal hyperalgesia. The temperature of the plate at the time when the licking occurred was recorded. The peptides were injected every single day and at 30 minutes prior to the behavior test. In addition, to investigate the effects of the peptides on inflammatory swelling caused by the CFA injection, the thicknesses of the left and right hind paws of the mice were measured post-peptide administration for signs of inflammation. In the figures, *p≤0.05, **p≤0.01, and ***p≤0.001 show comparisons to the Vehicle/L3D-37pA controls at each timepoint.
In this experiment, the peptide was administered topically once a day. The first group of mice (“CFA group”) were injected with 30 μl of Complete Freund's Adjuvant (CFA) in the plantar surface of the left hind paw. The second group of mice (“Vehicle Group”) were injected with Vehicle (saline) instead of CFA. For each of the CFA and Vehicle groups, the topical formulation was then administered to the mice according to the following experiment design:
The topical application of the peptides was carried out 21 hours after the saline or CFA injection and applied […] in the following days. In case of topical application of peptide, the peptides were applied 3 hours before the second measurement of thermosensitivity and applied […] afterwards. Thermal hyperalgesia was performed before administration and after administering the L37pA, L3D-37 pA, or vehicle, at 30 minutes after administration. The thermal hyperalgesia test was performed as described above. In addition, the thicknesses of the left and right hind paws of the mice were measured post-peptide administration for signs of inflammation. In the figures, *p 0.05, **p 0.01, and ***p 0.001 show comparisons to the saline/L3D-37pA controls at each timepoint.
The applicant performed heat hyperalgesia tests similar to the manner discussed above in Example 1. […]

CD36 = biological target: T1, CD36 (Homo sapiens, UniProt P16671); assay: IL-8 in conditioned medium (ELISA) of CD36-expressing HEK293 cells after 20 hours incubation with CD36 ligands; type: cell-based; settings: for IL-8 produced by cells treated with the ligand: CD36-expressing HEK293 cells, increasing ligand concentrations, 20 hours (FIG. 8)
T1 construct: expressed in transfected cells; host or cells: HEK293
T1 sequence (P16671 whole entry): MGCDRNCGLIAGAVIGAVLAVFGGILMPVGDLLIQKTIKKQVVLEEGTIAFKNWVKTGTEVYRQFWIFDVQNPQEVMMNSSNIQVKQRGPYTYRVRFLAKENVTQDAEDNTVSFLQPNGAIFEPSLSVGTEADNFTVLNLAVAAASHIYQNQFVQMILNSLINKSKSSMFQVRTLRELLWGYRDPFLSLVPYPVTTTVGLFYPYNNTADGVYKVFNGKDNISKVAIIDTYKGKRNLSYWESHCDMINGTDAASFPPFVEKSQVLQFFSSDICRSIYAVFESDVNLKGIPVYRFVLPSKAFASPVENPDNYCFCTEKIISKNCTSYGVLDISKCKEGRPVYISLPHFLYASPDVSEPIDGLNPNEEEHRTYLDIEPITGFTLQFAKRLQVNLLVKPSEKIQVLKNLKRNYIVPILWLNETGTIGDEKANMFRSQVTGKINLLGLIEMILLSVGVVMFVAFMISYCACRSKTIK
Procedure: (§1) Following 20 hours incubation of wild-type (WT) and CD36-expressing (CD36+) HEK293 cells with increasing concentrations of CD36 ligands, the IL-8 levels were determined in conditioned medium by ELISA.
Following 20 hours incubation of CD36-expressing cells with the indicated amounts of the ligands, the IL-8 levels were determined in conditioned medium.
(§2) To study this, the applicant conducted cell culture experiments using wildtype (WT) and CD36+ expressing (CD36+) HEK293 cells, treated with increasing amounts of CD36 ligands. Specifically, the ligands tested were the PAMP lipopolysaccharide (LPS) and the DAMPs high mobility group box 1 protein (HMGB1), Histone H3B, and heat shock protein 60 (HSP60). […] Similarly to HSP60, it is presumed that HSP70 and HSP90 also cause inflammation mediated by the CD36 receptor, and which may be alleviated by the disclosed peptides.
Additionally, the applicant studied the effects of the above-referenced SAHP L37pA as an inhibitor of CD36-dependent, PAMP/DAMP-induced pro-inflammatory response. See FIGS. 9(a)-9(c) To study this, the applicant conducted cell culture experiments using CD36+ HEK293 cells, treated with increasing amounts of CD36 ligands. […] As controls, no treatment, L37pA alone, and L3D alone were administered.
As controls, no treatment, L37pA alone, and L3D alone were administered. […] L37pA was especially effective in the case of 1 μg/ml and 2.5 μg/ml HMGB1, relative to administrations of HMGB1 alone.
In FIG. 9(c), the DAMP Histone H3B was administered in the amount of 25 μg/ml alone, in combination with 10 μg/ml L37pA, 25 μg/ml L37pA, 10 μg/ml L3D and 25 µg/ml L3D. As controls, no treatment, 10 μg/ml L37pA alone, 25 μg/ml L37pA alone, 10 μg/ml L3D alone, and 25 μg/ml L3D alone were administered.

[2] = tested on: wild-type (WT) HEK293 cells; assay: IL-8 in conditioned medium (ELISA) of wild-type HEK293 cells after 20 hours incubation with CD36 ligands; type: cell-based; settings: wildtype HEK293 cells; increasing ligand concentrations; 20 hours (FIG. 8)
Procedure: as §1, §2

DWLKAFYDKVAEKLKEAFPDWLKAFYDKVAEKLKEAF [Peptide L37pA]
skin irritation or other adverse side effects (mice; chronic topical administration in the therapeutic range of doses): does not induce skin irritation or other adverse side effects | adverse effects (general toxicity, behavioral changes, weight loss, skin redness, skin erosions) (mice; up to 14 repetitive daily skin applications of hydrogel formulation): no adverse effects

EKLLELLKKLLELLKKLLPDWLKAFYDKVAEKLKEAF [ELK-B-P-18A]
heat hyperalgesia compared to the inactive L3D-L37pA peptide ([1]; CFA): improved heat hyperalgesia compared to the inactive L3D-L37pA peptide at 3 hours, and particularly improved heat hyperalgesia at 7 days

EKLLELLKKLLELLKKLLPEKLLELLKKLLELLKKLL [ELK-B]
heat hyperalgesia compared to the inactive L3D-L37pA peptide ([1]; CFA): slightly improved heat hyperalgesia compared to the active L3D-L37pA peptide at 1 day, and similar heat hyperalgesia at other timepoints

L3D-37pA: inactive L37pA peptide where three L-lysine's in each A18 were replaced with D-lysine's disrupting the helical structure; negative control (DWLKAFYDKVAEKLKEAFPDWLKAFYDKVAEKLKEAF; also: three of the four Lys in each A18 segment are D-Lys, places not given here) [Peptide L3D-37pA]
production of IL-8 relative to LPS alone (CD36; 10 ng/ml and 100 ng/ml LPS, 10 μg/ml peptide, CD36+ HEK293 cells, 20 hours): ineffective or only slightly effective | production of IL-8 relative to Histone H3B alone (CD36; 25 μg/ml Histone H3B, 10 μg/ml and 25 μg/ml peptide, CD36+ HEK293 cells, 20 hours): ineffective or only slightly effective | production of IL-8 relative to HMGB1 alone (CD36; 0.25, 1 and 2.5 μg/ml HMGB1, 10 μg/ml peptide, CD36+ HEK293 cells, 20 hours): ineffective or only slightly effective | withdrawal latencies to thermal stimuli ([1]; intramuscular peptide approx. 20 μg per injection once a day, 3 hours after CFA (FIG. 2(a))): reduction was even more exaggerated | withdrawal latencies to thermal stimuli ([1]; intramuscular peptide approx. 20 μg per injection once a day, 24 hours after CFA (FIG. 2(a))): only showed a minimal increase | withdrawal latencies to thermal stimuli ([1]; intramuscular peptide approx. 20 μg per injection once a day, three days after CFA (FIG. 2(a))): still showed a significant reduction of withdrawal latencies | withdrawal latencies to thermal stimuli ([1]; topical application 0.2 mg/ml, 24 hours and 3 days after CFA (FIG. 3(a))): remained reduced with only slight increase | pain sensation in response to stimuli ([1]; CFA model, topical hydrogel or lotion, and local intramuscular injection): did not show any pain-reducing activities | paw withdrawal temperature of inflamed paws ([1]; CFA, topical hydrogel or local intramuscular injection, within 3 days post-CFA (FIGS. 2(a), 3(a))): without effect | heat hyperalgesia (response temperature) ([1]; Example 2, FIG. 4, CFA, intramuscular injection, 24 h, 3 d, 7 d): did not reduce heat hyperalgesia at any time point

high mobility group box 1 protein [HMGB1]
IL-8 produced by cells treated with the ligand [2]: minimal amount of interleukin 8 | IL-8 produced by cells treated with the ligand (CD36): significant amount of IL-8

lipopolysaccharide [LPS]
IL-8 produced by cells treated with the ligand [2]: minimal amount of interleukin 8 | IL-8 produced by cells treated with the ligand (CD36): significant amount of IL-8
